Reference: US11912737B2, “19-nor neuroactive steroids and methods of use thereof” (Sage Therapeutics, Inc., priority 2013, dated 2024)

Each compound was assayed against [35S]-TBPS binding, rat brain cortical membranes (assay: Steroid inhibition of [35S]-TBPS binding). Conditions: 3 nM [35S]-TBPS, in the presence of 5 μM GABA.
Procedure: Steroid Inhibition of TBPS Binding
[35S]-t-Butylbicylophorothionate (TBPS) binding assays using rat brain cortical membranes in the presence of 5 μM GABA has been described (Gee et al, J. Pharmacol. Exp. Ther. 1987, 241, 346-353; Hawkinson et al, Mol. Pharmacol. 1994, 46, 977-985; Lewin, A. H et al., Mol. Pharmacol. 1989, 35, 189-194).
Briefly, cortices are rapidly removed following decapitation of carbon dioxide-anesthetized Sprague-Dawley rats (200-250 g). The cortices are homogenized in 10 volumes of ice-cold 0.32 M sucrose using a glass/teflon homogenizer and centrifuged at 1500×g for 10 min at 4° C. The resultant supernatants are centrifuged at 10,000×g for 20 min at 4° C. to obtain the P2 pellets. The P2 pellets are resuspended in 200 mM NaCl/50 mM Na—K phosphate pH 7.4 buffer and centrifuged at 10,000×g for 10 min at 4° C. This washing procedure is repeated twice and the pellets are resuspended in 10 volumes of buffer. Aliquots (100 μL) of the membrane suspensions are incubated with 3 nM [^35S]-TBPS and 5 μL aliquots of test drug dissolved in dimethyl sulfoxide (DMSO) (final 0.5%) in the presence of 5 μM GABA. The incubation is brought to a final volume of 1.0 mL with buffer. Nonspecific binding is determined in the presence of 2 μM unlabeled TBPS and ranged from 15 to 25%. Following a 90 min incubation at room temp, the assays are terminated by filtration through glass fiber filters (Schleicher and Schuell No. 32) using a cell harvester (Brandel) and rinsed three times with ice-cold buffer. Filter bound radioactivity is measured by liquid scintillation spectrometry. Non-linear curve fitting of the overall data for each drug averaged for each concentration is done using Prism (GraphPad).
Various compounds are or can be screened to determine their potential as modulators of [^355]-TBPS binding in vitro. These assays are or can be performed in accordance with the above discussed procedures.

Structure (SMILES) | IC50 [nM]
COC[C@@]1(O)CC[C@H]2[C@H](CC[C@@H]3[C@@H]2CC[C@]2(C)[C@@H](C(=O)CN4CCN(S(C)(=O)=O)CC4)CC[C@@H]32)C1 [Entry 22] | 100 to 500
C[C@@H]1C[C@H]2[C@@H](CC[C@@H]3[C@@H]2CC[C@]2(C)[C@@H](C(=O)CN4CCN(S(C)(=O)=O)CC4)CC[C@@H]32)C[C@]1(C)O [Entry 25] | 50 to 100
C[C@@]1(O)CC[C@H]2[C@H](CC[C@@H]3[C@@H]2CC[C@]2(C)[C@@H](C(=O)CN4CC(O)C4)CC[C@@H]32)C1 [Entry 5] | ≥ 500
CO[C@H]1C[C@H]2[C@@H](CC[C@@H]3[C@@H]2CC[C@]2(C)[C@@H](C(=O)CN4CCOCC4)CC[C@@H]32)C[C@]1(C)O [Entry 41] | ≥ 500
CC(=O)N1CCN(CC(=O)[C@H]2CC[C@H]3[C@@H]4CC[C@H]5C[C@](C)(O)CC[C@@H]5[C@H]4CC[C@]23C)CC1 [Entry 13] | 100 to 500
C[C@H]1C[C@H]2[C@@H](CC[C@@H]3[C@@H]2CC[C@]2(C)[C@@H](C(=O)CN4CCOCC4)CC[C@@H]32)C[C@]1(C)O [Entry 18] | 100 to 500
C[C@@]1(O)CC[C@H]2[C@@H](CC[C@@H]3[C@@H]2CC[C@]2(C)[C@@H](C(=O)CN4CCC(O)CC4)CC[C@@H]32)C1 [Entry 12] | ≥ 500
C[C@@]1(O)CC[C@H]2[C@H](CC[C@@H]3[C@@H]2CC[C@]2(C)[C@@H](C(=O)CN4CCNCC4)CC[C@@H]32)C1 [Entry 23] | ≥ 500
C[C@]12CC[C@H]3[C@@H](CC[C@@H]4C[C@@](O)(CF)CC[C@@H]43)[C@@H]1CC[C@@H]2C(=O)CN1CCOCC1 [Entry 46] | ≥ 500
CC[C@@]1(O)CC[C@H]2[C@@H](CC[C@@H]3[C@@H]2CC[C@]2(C)[C@@H](C(=O)CN4CCOCC4)CC[C@@H]32)C1 [Entry 49] | ≥ 500
COC[C@@]1(O)CC[C@H]2[C@@H](CC[C@@H]3[C@@H]2CC[C@]2(C)[C@@H](C(=O)CN4CCOCC4)CC[C@@H]32)C1 [Entry 42] | ≥ 500
C[C@@]1(O)CC[C@H]2[C@@H](CC[C@@H]3[C@@H]2CC[C@]2(C)[C@@H](C(=O)CN4CCNCC4)CC[C@@H]32)C1 [Entry 24] | ≥ 500
C[C@@]1(O)CC[C@@H]2[C@H]3CC[C@]4(C)[C@@H](C(=O)CN5CCOCC5)CC[C@H]4[C@@H]3C[C@@H](F)[C@@H]2C1 [Entry 44] | ≥ 500
C[C@]12CC[C@H]3[C@@H](CC[C@@H]4C[C@@](O)(C(F)F)CC[C@@H]43)[C@@H]1CC[C@@H]2C(=O)CN1CCOCC1 [Entry 40] | ≥ 500
CC(=O)N1CCN(CC(=O)[C@H]2CC[C@H]3[C@@H]4CC[C@H]5C[C@](C)(O)[C@@H](C)C[C@@H]5[C@H]4CC[C@]23C)CC1 [Entry 21] | 100 to 500
C[C@H]1CN(CC(=O)[C@H]2CC[C@H]3[C@@H]4CC[C@@H]5C[C@](C)(O)CC[C@@H]5[C@H]4CC[C@]23C)C[C@H](C)O1 [Entry 31] | 10 to 50
C[C@@H]1CCCCN1CC(=O)[C@H]1CC[C@H]2[C@@H]3CC[C@@H]4C[C@](C)(O)CC[C@@H]4[C@H]3CC[C@]12C [Entry 37] | 100 to 500
C[C@@]1(O)CC[C@@H]2[C@H]3CC[C@]4(C)[C@@H](C(=O)CN5CCOCC5)CC[C@H]4[C@@H]3C[C@@H](F)[C@H]2C1 [Entry 38] | ≥ 500
COC[C@@]1(O)CC[C@H]2[C@@H](CC[C@@H]3[C@@H]2CC[C@]2(C)[C@@H](C(=O)CN4CCN(S(C)(=O)=O)CC4)CC[C@@H]32)C1 [Entry 52] | 100 to 500
C[C@@]1(O)CC[C@H]2[C@H](CC[C@@H]3[C@@H]2CC[C@]2(C)[C@@H](C(=O)CN4CCCOCC4)CC[C@@H]32)C1 [Entry 53] | 100 to 500
